Test results reported in paper PMC6389703, “Identification of Biologically Active Ganoderma lucidum Compounds and Synthesis of Improved Derivatives That Confer Anti-cancer Activities in vitro” (Frontiers in Pharmacology, 2019).

Columns and labels:
[1] = system: MCF10A cells; assay: cells; format: cell-based
Protocol: Cell viability assays (MTT or PI staining assays) in SUM-149, SUM-190, MDA-MB-231, and MCF10A cells were performed as we previously described ([Suarez-Arroyo et al., 2016]).
(§1) For the CTG assay, 3 or 4 replicate assays were conducted for each experimental condition, and a minimum of 3 independent experiments were conducted for cellular assays. The mean luminescence of each experimental treatment group was normalized as a percentage of the mean intensity of untreated controls. EC50 values (μM) were calculated by Pipeline Pilot Software (Accelrys, Enterprise Platform, San Diego, CA, United States). EC50 values (μM) from the viability assay were calculated from dose response curve-fitting via non-linear regression by using GraphPad Prism (Version 7.0, San Diego, CA, United States). For cell viability, colony formation, cell-cycle progression, cell death, and western blot assays, the analyses were performed via one-way or two-way ANOVA with post-testing for each condition (concentration, cell cycle stage, apoptotic event, cell line) by using GraphPad Prism.

[2] = system: SUM-190 cells; assay: Cell viability assay, SUM-190; format: cell-based; details: Homo sapiens, SUM190; Figure 4E
Protocol: Either 1 × 10^3–4.8 × 10^3 or 4 × 10^2–1.2 × 10^3 cells were seeded to each well of 96- or 384-well white polystyrene flat-bottomed plates (3610 or 8804BC, Corning) in 100 μL or 30 μL media per well, respectively. The concentrations used were experimentally determined to ensure logarithmic growth during the duration of the experiment and prevent adverse effects on cell growth by DMSO exposure. The plates were incubated at 37°C in 5% CO2 for 24 h before treatment. Stock solutions of test compounds (10 mM in DMSO) in nine 3-fold serial dilutions were dispensed via pintool (Biomek). The final concentration of DMSO was 0.3% (v/v) in each well. […] Luminescence was recorded in an Envision plate reader (PerkinElmer). […]
as §1, with “For cell viability, colony formation, cell-cycle progression, cell death, and western blot assays, the analyses were performed via one-way or two-way ANOVA with post-testing for each condition (concentration, cell cycle stage, apoptotic event, cell line) by using GraphPad Prism.” left out

[3] = Incubation of EP with NAC, monitored by NMR and LC-MS; format: physicochemical; details: NAC in DMSO, 24 h at 37°C
[4] = system: MDA-MB-231 cells; assay: De novo in-cell protein synthesis (click assay); format: cell-based, human; details: 2 h; EP 20 μM
Protocol: First, 2.5 × 10^4 cells/well were seeded in 8-well μ-slides (Ibidi®, #80826) and incubated at 37°C for 12 h. The cells were treated with vehicle, compounds Ganoderic acid A or EP, or cycloheximide (positive control) for 2 h to determine protein synthesis as nascent proteins generated using Biovision’s EZClick^TM Global Protein Synthesis Assay Kit, (#K715-100, Milpitas, CA, United States). The assay includes a robust chemical method based on an alkyne containing o-propargyl-puromycin (OP-puro) probe, which stops translation by forming covalent conjugates with nascent polypeptide chains. Truncated polypeptides are rapidly turned over by the proteasome and can be detected based on the subsequent click reaction with a fluorescent azide. The reaction was conducted according to the manufacturer’s protocol. Cells were imaged at 20× with a Nikon C2 scanning confocal microscope, and the whole image montage was quantified by using Gen5 Software and Lionheart^TM FX Automated Microscope (BioTek, Winooski, VT, United States).

[5] = system: additional cancer cellular models; assay: Cell viability, additional cancer cellular models; format: cell-based; details: Supplementary Figure S2
Protocol: (§2) Either 1 × 10^3–4.8 × 10^3 or 4 × 10^2–1.2 × 10^3 cells were seeded to each well of 96- or 384-well white polystyrene flat-bottomed plates (3610 or 8804BC, Corning) in 100 μL or 30 μL media per well, respectively. The concentrations used were experimentally determined to ensure logarithmic growth during the duration of the experiment and prevent adverse effects on cell growth by DMSO exposure. The plates were incubated at 37°C in 5% CO2 for 24 h before treatment. Stock solutions of test compounds (10 mM in DMSO) in nine 3-fold serial dilutions were dispensed via pintool (Biomek). The final concentration of DMSO was 0.3% (v/v) in each well. […] Luminescence was recorded in an Envision plate reader (PerkinElmer).
as §1, with “For cell viability, colony formation, cell-cycle progression, cell death, and western blot assays, the analyses were performed via one-way or two-way ANOVA with post-testing for each condition (concentration, cell cycle stage, apoptotic event, cell line) by using GraphPad Prism.” left out

[6] = system: SUM-149 cells; assay: Cell migration assay (Boyden chamber); format: cell-based, human; details: 10 μM, 72 h
Protocol: Cell migration and invasion were measured by using Corning® FluoroBlok^TM Cell Culture Inserts and performing BD BioCoat Matrigel invasion assays (BD Biosciences, San José, CA, United States) as described in [Martinez-Montemayor et al. (2011)] and [Suarez-Arroyo et al. (2016)].

[7] = system: SUM-149 cells; assay: Colony formation assay; format: cell-based, human; details: 72 h treatment, 5–40 μM, 10 days culture
Protocol: SUM-149 cells (1.5 × 10^6 cells/well) were plated on a 6-well plate. Two days later, cell media was changed to 5% FBS, and cells were incubated at 37°C in a 5% CO2 atmosphere for 1 h before vehicle (0.1% DMSO) or EP (5–40 μM) was added. After 72 h of treatment, cells were trypsinized and reseeded at 200 cells/mL per well in 24-well plates. After 10 days of culture, colonies were visualized by crystal violet staining, and the colony numbers were counted under a microscope.

[8] = system: SUM-149 cells; assay: Cell cycle assay (PI, flow cytometry); format: cell-based, human; details: 48 h
Protocol: SUM-149 cells were treated for 48 h with EP, then collected and washed in 1X PBS. The cells (5 × 10^5) were fixed and permeabilized in 70% ethanol at -20°C until further analysis. To measure the DNA content, the cells were washed and resuspended in 150 μL of PBS buffer then incubated in 100 μL of 100 μg/mL RNase A (MilliporeSigma, Burlington, MA, United States) for 15 min at RT, then 250 μL of 50 μg/mL Propidium Iodide (MilliporeSigma) was added. Samples were incubated at RT for 10 min and analyzed on a BD FACS Canto II flow cytometer (BD Biosciences, San José, CA, United States). Data were analyzed by using FlowJo software (V10, FlowJo, LLC, Ashland, OR, United States).

[9] = system: Uocb-1 cells; assay: Cell Titer Glo viability assay, Uocb-1; format: cell-based; details: Homo sapiens, UoC-B1, 72-h treatment
Protocol: as §2
as §1, with “For cell viability, colony formation, cell-cycle progression, cell death, and western blot assays, the analyses were performed via one-way or two-way ANOVA with post-testing for each condition (concentration, cell cycle stage, apoptotic event, cell line) by using GraphPad Prism.” left out

**Q.** Which results are given for `CC(C)[C@@H](C)/C=C/[C@@H](C)[C@H]1CC[C@@H]2[C@]1(C)CC[C@H]1[C@]23C=C[C@]2(C[C@@H](O)CC[C@]12C)OO3` [EP, ergosterol peroxide]?
**A.** cytotoxicity in MCF10A non-cancerous mammary epithelial cells [1]: did not induce cytotoxicity; EC50 ([1]; Homo sapiens, MCF-10A, PI staining, 72-h treatment): > 100 µM; EC50 [2]: 43 µM; reaction of the endoperoxide motif with NAC [3]: no observable olefin migration or opening of the endoperoxide was detected; de novo protein synthesis inhibition [4]: do not inhibit; EC50 [5]: 7 to 22 µM; cancer cell migration [6]: decreases cancer cell migration; number and size of colonies formed [7]: concentration-dependent decrease; percentage of cells in G0 ([8]; 20μM): 1.7%; percentage of cells in G1 ([8]; 20μM): 81%; percentage of cells in G2/M ([8]; 20μM): 9.8%; percentage of cells in S ([8]; 20μM): 5.4%; increase in percentage of cells in G1 phase ([8]; vs vehicle): ~20%; reduction of the percentage of cells in G2/M ([8]; vs vehicle): ~10%; EC50 [9]: 13.6 µM
